Earlier results on ten compounds are cited in patent US11577212B2, “Stimuli-responsive micro-reservoirs for release of encapsulants” (priority 2018, dated 2023).

As for `COCCOCCOC` [diethylene glycol dimethyl ether], the solubility in water entry is “Miscible”.

For the compound `OCC(O)CO` [glycerin], the solubility in water entry is given as “Miscible”.

Turning to `CCCCC` [pentane], the solubility in water is reported as 0.04 g/100 g.

Consider `C1CCCCC1` [cyclohexane], for which the solubility in water is listed as 0.0055 g/100 g.

`CCOC(C)=O` [ethyl acetate]: the solubility in water is 8.7 g/100 g.

Consider `Clc1ccccc1` [chlorobenzene], for which the solubility in water was 0.05 g/100 g.

Turning to `CN(C)P(N(C)C)N(C)C` [Hexamethylphosphorous triamide (HMPT), Hexamethylphosphorous triamide], the solubility in water entry was “Miscible”.

As to `COCCOC` [1,2-dimethoxy-ethane (glyme, DME), 1,2-dimethoxy-ethane], the solubility in water result is listed as “Miscible”.

With `CCO` [ethanol], the solubility in water entry was “Miscible”.

For the compound `CCCCCC` [hexane], the solubility in water is reported as 0.0014 g/100 g.
